“Also recorded” adds a separate entry of the source. Blank lines part the entries; values can stand above or below the compound they belong to.
Legend:
human PDE 5A1 = system: human PDE 5A1; design: method as in PMID 15769121; conditions: cited from earlier work
[1] = target: T1, PDE 3B (recombinant, EC 3.1.4.17) (Homo sapiens, UniProt Q13370); test: cAMP-specific PDE activity assay (cell-free, radiochemical); type: biochemical; conditions: for IC50 of single anthocyanins: given in µg/mL; for IC50: mean ± SD, n = 3–4, read-out: IC50 of cyanidin and anthocyanins; for influence on PDE activity (in words): c = 25–2000 µM
T1 construct: purchased Sigma Aldrich (St. Louis, MO, USA)
T1 sequence (Q13370 whole entry, species assumed): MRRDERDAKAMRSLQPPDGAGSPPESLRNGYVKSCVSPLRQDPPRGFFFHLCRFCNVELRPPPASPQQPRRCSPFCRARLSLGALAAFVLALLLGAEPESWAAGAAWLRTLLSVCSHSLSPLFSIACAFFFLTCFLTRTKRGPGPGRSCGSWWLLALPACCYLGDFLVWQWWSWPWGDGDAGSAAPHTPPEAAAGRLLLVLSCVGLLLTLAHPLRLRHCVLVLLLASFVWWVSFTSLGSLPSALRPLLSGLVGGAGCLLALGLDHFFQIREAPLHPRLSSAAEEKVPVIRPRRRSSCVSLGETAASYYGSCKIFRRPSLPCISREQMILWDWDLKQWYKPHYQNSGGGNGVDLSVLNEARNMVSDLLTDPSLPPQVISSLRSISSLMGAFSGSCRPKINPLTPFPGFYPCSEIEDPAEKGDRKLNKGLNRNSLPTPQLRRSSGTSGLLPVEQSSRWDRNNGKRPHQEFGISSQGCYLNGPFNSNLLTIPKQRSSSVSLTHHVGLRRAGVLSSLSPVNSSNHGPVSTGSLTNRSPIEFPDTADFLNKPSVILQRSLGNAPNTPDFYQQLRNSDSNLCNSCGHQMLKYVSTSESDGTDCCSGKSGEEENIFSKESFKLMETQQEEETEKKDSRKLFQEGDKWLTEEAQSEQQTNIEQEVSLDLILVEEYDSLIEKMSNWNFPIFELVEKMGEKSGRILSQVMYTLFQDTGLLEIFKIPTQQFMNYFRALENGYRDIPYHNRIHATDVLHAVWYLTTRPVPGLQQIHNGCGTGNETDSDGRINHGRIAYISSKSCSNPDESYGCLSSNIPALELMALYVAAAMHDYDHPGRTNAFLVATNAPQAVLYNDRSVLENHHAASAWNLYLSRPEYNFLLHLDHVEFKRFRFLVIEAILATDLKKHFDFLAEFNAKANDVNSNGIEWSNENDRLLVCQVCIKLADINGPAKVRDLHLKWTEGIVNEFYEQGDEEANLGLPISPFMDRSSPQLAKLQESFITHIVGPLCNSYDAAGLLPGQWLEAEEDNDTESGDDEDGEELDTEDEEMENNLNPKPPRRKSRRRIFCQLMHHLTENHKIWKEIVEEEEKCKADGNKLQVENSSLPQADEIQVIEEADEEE
Experimental: The inhibitory effect of each extract on PDE 3B was measured according to the method published by Pöch et al. with slight modifications. One hundred microliters (100 µL) of the sample and 20 µL of PDE 3B (200 Units/mL) were incubated for 15 min at 4°C. Afterwards, a 50 µL volume of cAMP Mix (30 mM Tris/HCl pH 7.4, 9 mM MgCl2, 3 mM 5′AMP, 3 µM cAMP, 2.6 µCi/mL [2,8-^3H]-cAMP) was added and the mixture incubated for 25 min at 37 °C to allow for reaction. […] Experiments were performed in triplicate, and IC50 values were determined after at least three independent experiments. The ranges of test concentrations of extracts and single substances were intentionally chosen to align with similar ranges used for previous studies (extracts < 600 µg/mL; ACs < 2000 µM) to facilitate comparison with previous experiments.

[2] = system: phosphodiesterase 3′,5′-cyclic nucleotide 5′nucleotidohydrolase; design: method as in PMID 18617377; conditions: 0.01%, diluted in dimethyl sulfoxide; cited from earlier work
[3] = system: phosphodiesterase from rat adipocytes; design: method as in PMID 1384499; conditions: cited from earlier work
PDE 1 = system: PDE 1; design: method as in PMID 27558680; conditions: in vitro; cited from earlier work
[4] = system: PDE isolated from the lung tumor xenograft cell line LXFL529L; design: method as in PMID 29113064; conditions: cited from earlier work
[5] = system: cytosolic PDE activity in HT29 cells; design: method as in PMID 15497183; conditions: cited from earlier work
[6] = design: method as in PMID 22913378; conditions: cited from earlier work
[7] = system: PDE in human platelet lysates; design: method as in PMID 25247601; conditions: in vitro; cited from earlier work

Compound: COc1cc(-c2[o+]c3cc(O)cc(O)c3cc2O)cc(OC)c1O [malvidin]
IC50 (human PDE 5A1): 24.9 µM

inhibition of PDE 3B ([1]; c = 600 µM): 63%
rel. PDE activity (% of solvent control) ([1]; c = 600 µM): around 40%
IC50 of single anthocyanins [1]: 134 ± 25 µg/mL
IC50 [1]: 299 ± 56 µM
Compound: OC[C@H]1O[C@@H](Oc2cc3c(O)cc(O)cc3[o+]c2-c2ccc(O)c(O)c2)[C@H](O)[C@@H](O)[C@@H]1O.[Cl-] [cyanidin-3-glucoside, cyanidin-3-glucoside chloride]
PDE inhibition [2]: 99%

concentration above which PDE activity significantly diminished [1]: above 55 µM
rel. PDE 3B activity (% of solvent control) ([1]; c = 271 µM): comparable to those seen with caffeine
IC50 of single anthocyanins [1]: 56 ± 20 µg/mL
IC50 [1]: 120 ± 44 µM
Compound: COc1cc(-c2[o+]c3cc(O)cc(O)c3cc2O[C@@H]2O[C@H](CO)[C@@H](O)[C@H](O)[C@H]2O)ccc1O.[Cl-] [peonidin-3-glucoside, Peonidin-3-glucoside chloride]

Compound: O=c1c(O)c(-c2ccc(O)c(O)c2)oc2cc(O)cc(O)c12 [Quercetin]
inhibitory potency relative to 3-isobutyl-2-methylxanthine (in words) [3]: comparable to or greater than 3-isobutyl-2-methylxanthine

rel. PDE activity (% of solvent control) ([1]; c = 600 µM): 32.3 ± 2.9%
IC50 of single anthocyanins [1]: 108 ± 6 µg/mL
IC50 [1]: 257 ± 13 µM
Compound: Oc1cc(O)c2cc(O[C@@H]3OC[C@H](O)[C@H](O)[C@H]3O)c(-c3ccc(O)c(O)c3)[o+]c2c1.[Cl-] [cyanidin-3-arabinoside, cyanidin-3-arabinoside chloride]

Compound: CC(C)Cn1c(=O)n(C)c(=O)c2[nH]cnc21
IC50 [3]: 30 to 50 µM

Compound: O=C(/C=C/c1ccc(O)c(O)c1)O[C@@H]1C[C@](O)(C(=O)O)C[C@@H](O)[C@H]1O [chlorogenic acid]
IC50 (PDE 1): 36.7 ± 1.6 µM

Compound: O=c1c(-c2ccc(O)cc2)coc2cc(O)cc(O)c12 [genistein]
inhibitory potency relative to 3-isobutyl-2-methylxanthine (in words) [3]: comparable to or greater than 3-isobutyl-2-methylxanthine

concentration below which no influence on PDE activity [1]: below 884 µM
rel. PDE activity (% of solvent control) ([1]; c = 2000 µM): 52.3 ± 13.7%
influence on PDE activity (in words) [1]: little PDE inhibition
Compound: OC[C@H]1OC(Oc2cc3c(O)cc(O)cc3[o+]c2-c2ccc(O)c(O)c2)[C@H](O)[C@@H](O)[C@H]1O.[Cl-] (stereo partly drawn) [cyanidin-3-galactoside, cyanidin-3-galactoside chloride]

rel. PDE activity (% of solvent control) ([1]; c = 600 µM): around 40%
IC50 [1]: 448 ± 39 µM
Compound: COc1cc(-c2[o+]c3cc(O)cc(O)c3cc2O[C@@H]2O[C@H](CO)[C@@H](O)[C@H](O)[C@H]2O)cc(O)c1O.[Cl-] [petunidin-3-glucoside, petunidin-3-glucoside chloride]

Compound: O=c1c(O)c(-c2ccc(O)cc2)oc2cc(O)cc(O)c12 [kaempferol]
IC50 [3]: 58 µM

Compound: COc1cc(-c2[o+]c3cc(O)cc(O)c3cc2O[C@@H]2O[C@H](CO)[C@@H](O)[C@H](O)[C@H]2O)cc(OC)c1O.[Cl-] [malvidin-3-glucoside, malvidin-3-glucoside chloride]
minimum rel. PDE activity (% of solvent control) ([1]; c = 1328 µM): 71.4 ± 9.7%
IC50 (human PDE 5A1): 35.4 µM

influence on PDE activity (in words) [1]: inactive
Compound: C[C@@H]1O[C@@H](OC[C@H]2O[C@@H](Oc3cc4c(O)cc(O)cc4[o+]c3-c3ccc(O)c(O)c3)[C@H](O)[C@@H](O)[C@@H]2O)[C@H](O)[C@H](O)[C@H]1O.[Cl-] [cyanidin-3-rutinoside, cyanidin-3-rutinoside chloride]

Compound: O=C(/C=C/c1ccc(O)c(O)c1)O[C@@H]1[C@H](O)C[C@@](O)(C(=O)O)C[C@H]1OC(=O)/C=C/c1ccc(O)c(O)c1 (stereo in doubt) [3,4-dicaffeoylquinic acid]
IC50 [4]: > 1000 µM

Compound: O=c1c(O)c(-c2cc(O)c(O)c(O)c2)oc2cc(O)cc(O)c12 [myricetin]
IC50 [3]: 125 µM

Compound: O=c1cc(-c2ccc(O)c(O)c2)oc2cc(O)cc(O)c12 [luteolin]
IC50 [4]: 41 ± 10 µM
inhibitory potency relative to 3-isobutyl-2-methylxanthine (in words) [3]: comparable to or greater than 3-isobutyl-2-methylxanthine

remaining activity at 11 µM ([1]; c = 11 µM, read-out: rel. PDE 3B activity (% of solvent control)): 94.7 ± 2.8%
remaining activity at 271 µM ([1]; c = 271 µM, read-out: rel. PDE 3B activity (% of solvent control)): 28.7 ± 6.5%
IC50 [1]: 105 ± 11 µM
Compound: Oc1cc(O)c2cc(O)c(-c3ccc(O)c(O)c3)[o+]c2c1 [cyanidin, cyanidin chloride]
IC50 [5]: ~175 µM
stability in cell culture medium (in words) [6]: degraded rapidly

Compound: O=C(O)c1cc(O)c(O)c(O)c1 [gallic acid]
IC50 (PDE 1): 325 ± 3.62 µM

Compound: Cn1c(=O)c2c(ncn2C)n(C)c1=O [caffeine]
IC50 [7]: 700 µM
PDE inhibition [2]: 56%

influence on PDE activity (in words) [1]: inactive; also recorded: no effect
Compound: OC[C@H]1O[C@@H](Oc2cc3c(O[C@@H]4O[C@H](CO)[C@@H](O)[C@H](O)[C@H]4O)cc(O)cc3[o+]c2-c2ccc(O)c(O)c2)[C@H](O)[C@@H](O)[C@@H]1O.[Cl-] [cyanidin-3,5-diglucoside, cyanidin-3,5-diglucoside chloride]

Reference: paper PMC7555035, “In Vitro Inhibition of Phosphodiesterase 3B (PDE 3B) by Anthocyanin-Rich Fruit Juice Extracts and Selected Anthocyanins” (International Journal of Molecular Sciences, 2020)
